ChEMBL document CHEMBL4619750, “Benzoxepinones: A new isoform-selective class of tumor associated carbonic anhydrase inhibitors” (Bioorg Med Chem, 2020)

What was measured:
[1] = molecular target: Carbonic anhydrase 2 (Homo sapiens, UniProt P00918); assay: Inhibition of human carbonic anhydrase 2 assessed as inhibitory constant incubated for 6 hrs by stopped-flow CO2 hydration assay
[2] = molecular target: Carbonic anhydrase 9 (Homo sapiens, UniProt Q16790); assay: Inhibition of human carbonic anhydrase 9 assessed as inhibitory constant incubated for 6 hrs by stopped-flow CO2 hydration assay
[3] = molecular target: Carbonic anhydrase 1 (Homo sapiens, UniProt P00915); assay: Inhibition of human carbonic anhydrase 1 assessed as inhibitory constant incubated for 6 hrs by stopped-flow CO2 hydration assay
Chain of Carbonic anhydrase 1 (P00915 whole entry): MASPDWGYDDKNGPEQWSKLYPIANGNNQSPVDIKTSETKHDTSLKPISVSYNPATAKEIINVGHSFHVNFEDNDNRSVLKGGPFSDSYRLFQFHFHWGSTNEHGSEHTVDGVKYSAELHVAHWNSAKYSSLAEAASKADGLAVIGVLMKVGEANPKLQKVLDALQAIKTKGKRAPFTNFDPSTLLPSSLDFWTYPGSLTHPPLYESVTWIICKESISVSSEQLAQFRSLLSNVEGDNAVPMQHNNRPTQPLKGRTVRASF

Ki [1] [µM]	Ki [2] [µM]	Ki [3] [µM]	SMILES
> 100	0.0463	> 100	COC(=O)C1=Cc2cccc(OC)c2OC(=O)C1
> 100	0.0934	> 100	CCN(CC)c1ccc2c(c1)OC(=O)CC(C(=O)OC)=C2
> 100	0.254	> 100	COC(=O)C1=Cc2ccccc2OC(=O)C1
> 100	0.0838	> 100	COC(=O)C1=Cc2ccc(OC)cc2OC(=O)C1
> 100	0.171	> 100	COC(=O)C1=Cc2ccc(C)cc2OC(=O)C1
66.8	0.0402	> 100	COC(=O)C1=Cc2cc(OC)ccc2OC(=O)C1
> 100	0.0393	> 100	COC(=O)C1=Cc2cc(C(=O)OC)ccc2OC(=O)C1
> 100	0.303	> 100	COC(=O)C1=Cc2ccc3ccccc3c2OC(=O)C1
> 100	0.0717	> 100	COC(=O)C1=Cc2cc(C)ccc2OC(=O)C1
76.2	0.02	> 100	COC(=O)C1=Cc2cc(Cl)ccc2OC(=O)C1
85.7	0.0373	> 100	COC(=O)C1=Cc2cc(C(C)(C)C)ccc2OC(=O)C1
> 100	0.078	> 100	COC(=O)C1=Cc2ccc(Cl)cc2OC(=O)C1
